In paper PMC10002422, “Aggregation Limiting Cell-Penetrating Peptides Derived from Protein Signal Sequences” (International Journal of Molecular Sciences, 2023):
Where no end group is shown, it is not given here.

What was measured:
[1] = test system: Aβ1–42-GFP fusion protein expressed in U87 cells; assay: Reduction in expressed Aβ1–42-GFP aggregation, flow cytometry; type: cell-based, human; conditions: control inhibitor

Compound	green signal in Aβ42–EGFP expressing cells after known Aβ inhibitor [1]	peptide concentration at which cell viability is reduced (MTS) in serum free media (U87 cells) [µM]	reduction in the viability of cells (MTS) in serum free media (U87 cells)
O=S1(=O)OC(c2ccc(O)cc2)(c2ccc(O)cc2)c2ccccc21 [phenol red]	significantly increased the green signal	–	–
MANLGYWLLALFVTMWTDVGLCKKRPKP-NH2 [PrP1–28]	–	2.5	over 20%
MLRTKDLIWTLFFLGTAVSKKRPKP-NH2 [NCAM1_1–19PrP23–28]	–	20	–
